As to `Cl.Cl.Nc1ncnc2c1c(-c1ccc(Oc3ccccc3)cc1)cn2C1CNOC1` (stereo not drawn), the melting point (usually the temperature of the solid-liquid transition) is 208 °C (dec.).
As for `CC(C)(C(N)=O)n1cc(-c2ccc(Oc3ccccc3)cc2)c2c(N)ncnc21` [Example 160, 2-[4-Amino-5-(4-phenoxyphenyl)pyrrolo[2,3-d]pyrimidin-7-yl]-2-methylpropionamide], the figure is 227 to 228 °C; as for `Nc1ncnc2c1c(-c1ccc(Oc3ccccc3)cc1)cn2CCCCCCCCN1C(=O)c2ccccc2C1=O` [Example 169, 5-(4-Phenoxyphenyl)-7-(8-phthalimidooctyl)-7H-pyrrolo[2,3-d]pyrimidin-4-ylamine], 85 to 86 °C; as for `Nc1ncnc2c1c(-c1ccc(Oc3cccc(CN4CCOCC4)c3)cc1)cn2C1CCOC1` (stereo not drawn) [Example 37, 5-[4-(3-Morpholinomethylphenoxy)phenyl]-7-(3-tetrahydrofuryl)-7H-pyrrolo[2,3-d]pyrimidin-4-ylamine], 83 to 85 °C.
`Nc1ncnc2c1c(-c1ccc(Oc3ccccc3)cc1)cn2C1CCOC1` (stereo not drawn) [Example 22, 5-(4-Phenoxyphenyl)-7-(3-tetrahydrofuryl)-7H-pyrrolo[2,3-d]pyrimidin-4-ylamine]: the melting point was in the range of 196 to 196.5 °C.
As to `CCN(CC)Cc1ccccc1Oc1ccc(-c2cn(C3CCOC3)c3ncnc(N)c23)cc1` (stereo not drawn) [Example 27, 2-[4-(4-Amino-7-(3-tetrahydrofuryl)-7H-pyrrolo[2,3-d]pyrimidin-5-yl)phenoxy]-N,N-diethylbenzylamine], the melting point fell in the range of 107 to 110 °C.
On to `Nc1ncnc2c1c(-c1ccc(Oc3ccccc3)cc1)cn2S(=O)(=O)C1CCCC1` [Example 168, 7-Cyclopentanesulphonyl-5-(4-phenoxyphenyl)-7H-pyrrolo[2,3-d]pyrimidin-4-ylamine], for which the melting point is 188 to 188.5 °C.
`CCOC(=O)Cn1cc(-c2ccc(Oc3ccccc3)cc2)c2c(N)ncnc21` [Example 150, Ethyl 2-[4-Amino-5-(4-phenoxyphenyl)-7H-pyrrolo[2,3-d]pyrimidin-7-yl]acetate] showed a melting point of 161 to 161.3 °C.
As to `N#Cc1cc(F)ccc1Oc1ccc(-c2cn(C3CCOCC3)c3ncnc(N)c23)cc1` [Example 53, 2-[4-(4-Amino-7-(4-tetrahydropyranyl)-7H-pyrrolo[2,3-d]pyrimidin-5-yl)phenoxy]-5-fluorobenzonitrile], the melting point lay in the range of 216 to 217 °C.
In turn, `CN(C)[C@H]1CC[C@@H](n2cc(-c3ccc(Oc4ccccc4)cc3)c3c(N)ncnc32)CC1` [Example 196, cis-7-(4-Dimethylaminocyclohexyl)-5-(4-phenoxyphenyl)-7H-pyrrolo[2,3-d]pyrimidin-4-ylamine] showed a melting point of 180 to 182 °C.
`Cl.Cl.NCCCCCCCCn1cc(-c2ccc(Oc3ccccc3)cc2)c2c(N)ncnc21.O.O` (hydrate or solvate) showed a melting point of 120 °C.
With `N#Cc1ccccc1Oc1ccc(-c2cn(C3CCOC3)c3ncnc(N)c23)cc1` (stereo not drawn) [Example 28, 2-[4-(4-Amino-7-(3-tetrahydrofuryl)-7H-pyrrolo[2,3-d]pyrimidin-5-yl)phenoxy]-benzonitrile] the figure was 201 to 203 °C; with `Nc1ncnc2c1c(-c1ccc(Oc3ccc(CN4CCOCC4)cc3)cc1)cn2C1CCOC1` (stereo not drawn) [Example 36, 5-[4-(4-Morpholinomethylphenoxy)-phenyl]-7-(3-tetrahydrofuryl)-7H-pyrrolo[2,3-d]pyrimidin-4-ylamine], 142 to 144 °C.
With `Nc1ncnc2c1c(-c1ccc(Oc3ccccc3)cc1)cn2CCN1C(=O)c2ccccc2C1=O` [Example 171, N-{2-[4-Amino-5-(4-phenoxyphenyl)-7H-pyrrolo[2,3-d]pyrimidin-7-yl]ethyl}phthalimide] the figure was 111 to 112 °C.
Compound `COCCCNc1cccc(Oc2ccc(-c3cn(C4CCOCC4)c4ncnc(N)c34)cc2)c1C#N` [Example 52, 2-[4-(4-Amino-7-(4-tetrahydropyranyl)-7H-pyrrolo[2,3-d]pyrimidin-5-yl)phenoxy)-6-(3-methoxypropylamino)benzonitrile] had a melting point of 205 to 207 °C.

These data come from patent US6713474B2, “Pyrrolopyrimidines as therapeutic agents” (Abbott GmbH & Co. KG, priority 1998, dated 2004).
